Assay results: ChEMBL document CHEMBL5500331, “Discovery of novel peptide-dehydroepiandrosterone hybrids inducing endoplasmic reticulum stress with effective in vitro and in vivo anti-melanoma activities” (Eur J Med Chem, 2024)
Active and inactive are the calls of the source. The calls are words filed in the database; no cut-off is given here.

Legend:
[1] = tested on: B16; assay: Anti-melanoma activity against mouse B16 cells xenografted in Kunming mouse model assessed as suppression of tumor weight at 40 mg/kg, IG measured every two days for 27 days (reference value: 10.61+/-1.05g); assay type: functional; settings: time 27 day
[2] = tested on: B16; assay: Anti-melanoma activity against mouse B16 cells xenografted in Kunming mouse model assessed as increase in caspase 3 expression at 40 to 60 mg/kg, IG measured after 27 days by IHC staining based analysis; assay type: functional, organism-based; settings: dose 40-60 mg/kg, time 27.0 day
[3] = Drug metabolism in mouse plasma assessed as abiraterone Tmax at 20 mg/kg, IG; assay type: ADME, organism-based; settings: in vivo, po
[4] = tested on: B16; assay: Anti-melanoma activity against mouse B16 cells xenografted in Kunming mouse model assessed as decrease in bcl-2 level at 40 to 60 mg/kg, IG measured after 27 days by IHC staining based analysis; assay type: functional, organism-based; settings: dose 40-60 mg/kg, time 27.0 day
[5] = Inhibition of cell migration in mouse B16 cells at 9.70 uM measured after 24 hrs by crystal violet staining based analysis relative to control; assay type: functional
[6] = Toxicity in Kunming mouse assessed as effect on body weight at 80 mg/kg, IG measured after 21 days; assay type: organism-based; settings: in vivo, po, 504 h, time 21 day
[7] = tested on: B16; assay: Upregulation of caspase 8 expression in mouse B16 cells at 9.70 uM measured after 48 hrs by Western blot analysis; assay type: functional, cell-based; settings: dose 9.7 µM
[8] = tested on: B16; assay: Anti-melanoma activity against mouse B16 cells xenografted in Kunming mouse model assessed as increase in bax expression at 40 to 60 mg/kg, IG measured after 27 days by IHC staining based analysis; assay type: functional, organism-based; settings: dose 40-60 mg/kg, time 27.0 day
[9] = Toxicity in Kunming mouse assessed as increase in survival rate at 60 mg/kg, IG measured after 27 days relative to control; assay type: organism-based; settings: in vivo, po, time 27 day
[10] = tested on: B16; assay: Anti-melanoma activity against mouse B16 cells xenografted in Kunming mouse model assessed as reduction in tumor volume at 60 to 80 mg/kg, IG measured after 11 days relative to control; assay type: functional; parameters: scale not given: the % may be the effect or the level left; settings: dose 60-80 mg/kg, time 11 day
[11] = tested on: B16; assay: Anti-melanoma activity against mouse B16 cells xenografted in Kunming mouse model assessed as reduction in tumor volume at 40 mg/kg, IG measured after 19 days; assay type: functional, organism-based; settings: time 19.0 day
[12] = tested on: B16; assay: Anti-melanoma activity against mouse B16 cells xenografted in Kunming mouse model assessed as suppression of tumor weight at 60 mg/kg, IG measured every two days for 27 days (reference value: 10.61+/-1.05g); assay type: functional; settings: time 27 day
[13] = tested on: B16; assay: Anti-melanoma activity against mouse B16 cells xenografted in Kunming mouse model assessed as suppression of tumor weight at 80 mg/kg, IG measured every two days for 27 days (reference value: 10.61+/-1.05g); assay type: functional; settings: time 27 day
[14] = tested on: B16; assay: Anti-melanoma activity against mouse B16 cells xenografted in Kunming mouse model assessed as inhibition of tumor weight at 80 mg/kg, IG measured every two days for 27 days relative to control; assay type: functional; parameters: scale not given: the % may be the effect or the level left; settings: time 27 day
[15] = tested on: B16; assay: Anti-melanoma activity against mouse B16 cells xenografted in Kunming mouse model assessed as reduction in tumor volume at 40 mg/kg, IG measured after 7 to 27 days; assay type: functional, organism-based; settings: time 7-27 day
[16] = Toxicity in Kunming mouse assessed as effect on body weight at 60 mg/kg, IG measured after 21 days; assay type: organism-based; settings: in vivo, po, 504 h, time 21 day
[17] = tested on: B16; assay: Upregulation of […] expression in mouse B16 cells at 9.70 uM measured after 48 hrs by Western blot analysis; assay type: functional, cell-based; settings: dose 9.7 µM
[18] = Antiproliferative activity against human Prostate tumor cell line at 25 uM measured after 48 hrs by MTT assay relative to control; assay type: functional
[19] = tested on: B16; assay: Antiproliferative activity against mouse B16 cells measured after 48 hrs by MTT assay; assay type: functional, cell-based; settings: B16, 48 h
[20] = Inhibition of cell migration in mouse B16 cells at 9.70 uM measured after 48 hrs by scratch-wound healing assay relative to control; assay type: functional
[21] = Inhibition of cell invasion in mouse B16 cells at 9.70 uM measured after 24 hrs by crystal violet staining based analysis relative to control; assay type: functional
[22] = Toxicity in Kunming mouse assessed as increase in survival rate at 80 mg/kg, IG measured after 27 days relative to control; assay type: organism-based; settings: in vivo, po, time 27 day
[23] = tested on: B16; assay: Induction of endoplasmic reticulum (ER) stress in mouse B16 cells assessed as increase in […] expression at 9.70 uM measured after 48 hrs by Western blot analysis; assay type: functional, cell-based; settings: dose 9.7 µM
[24] = tested on: B16; assay: Induction of endoplasmic reticulum (ER) stress in mouse B16 cells assessed as fragmented distribution at 25 uM measured after 24 hrs by confocal microscopy based analysis; assay type: functional, cell-based
[25] = tested on: B16; assay: Anti-melanoma activity against mouse B16 cells xenografted in Kunming mouse model assessed as inhibition of tumor weight at 60 mg/kg, IG measured every two days for 27 days relative to control; assay type: functional; parameters: scale not given: the % may be the effect or the level left; settings: time 27 day
[26] = tested on: B16; assay: Anti-melanoma activity against mouse B16 cells xenografted in Kunming mouse model assessed as reduction in tumor volume at 40 to 80 mg/kg, IG measured after 5 days; assay type: functional, organism-based; settings: dose 40-80 mg/kg, time 5.0 day
[27] = tested on: B16; assay: Induction of endoplasmic reticulum (ER) stress in mouse B16 cells assessed as appearance of damaged ER at 9.70 uM measured after 24 hrs by confocal microscopy based analysis; assay type: functional, cell-based; settings: dose 9.7 µM
[28] = tested on: B16; assay: Induction of endoplasmic reticulum (ER) stress in mouse B16 cells assessed as decrease in alix expression at 9.70 uM measured after 48 hrs by Western blot analysis; assay type: functional, cell-based; settings: dose 9.7 µM
[29] = tested on: B16; assay: Upregulation of caspase 3 expression in mouse B16 cells at 9.70 uM measured after 48 hrs by Western blot analysis; assay type: functional, cell-based; settings: dose 9.7 µM
[30] = Toxicity in Kunming mouse assessed as effect on body weight at 40 mg/kg, IG measured after 21 days; assay type: organism-based; settings: in vivo, po, 504 h, time 21 day
[31] = tested on: B16; assay: Induction of endoplasmic reticulum (ER) stress in mouse B16 cells assessed as appearance of vacuolated ER at 9.70 uM measured after 24 hrs by confocal microscopy based analysis; assay type: functional, cell-based; settings: dose 9.7 µM
[32] = tested on: B16; assay: Anti-melanoma activity against mouse B16 cells xenografted in Kunming mouse model assessed as inhibition of tumor weight at 40 mg/kg, IG measured every two days for 27 days relative to control; assay type: functional; parameters: scale not given: the % may be the effect or the level left; settings: time 27 day
[33] = tested on: B16; assay: Downregulation of Bcl-2 expression in mouse B16 cells at 9.70 uM measured after 48 hrs by Western blot analysis; assay type: functional, cell-based; settings: dose 9.7 µM
[34] = Drug metabolism in mouse plasma assessed as abiraterone Cmax at 20 mg/kg, IG; assay type: ADME, organism-based; settings: in vivo, po
[35] = tested on: B16; assay: Anti-melanoma activity against mouse B16 cells xenografted in Kunming mouse model assessed as reduction in tumor volume at 60 to 80 mg/kg, IG measured after 7 to 27 days; assay type: functional, organism-based; settings: dose 60-80 mg/kg, time 7-27 day
[36] = tested on: B16; assay: Anti-melanoma activity against mouse B16 cells xenografted in Kunming mouse model assessed as increase in caspase 8 expression at 40 to 60 mg/kg, IG measured after 27 days by IHC staining based analysis; assay type: functional, organism-based; settings: dose 40-60 mg/kg, time 27.0 day
[37] = tested on: B16; assay: Induction of endoplasmic reticulum (ER) stress in mouse B16 cells assessed as increase in CHOP expression at 9.70 uM measured after 48 hrs by Western blot analysis; assay type: functional, cell-based; settings: dose 9.7 µM
[38] = tested on: B16; assay: Induction of apoptosis in mouse B16 cells at 4.85 uM measured after 48 hrs by annexin-V/PI double staining based flow cytometry analysis; assay type: functional, cell-based

Structure (SMILES): CC(C)[C@H](NC(=O)CN)C(=O)O[C@H]1CC[C@@]2(C)C(=CC[C@@H]3[C@@H]2CC[C@]2(C)C(c4cccnc4)=CC[C@@H]32)C1
- Activity [1]: 1.7 g
- Activity [2]: Active
- Tmax [3]: 8 h
- Activity [4]: Active
- inhibition at 9.7 µM [5]: 70%
- Activity [6]: Non-Toxic
- Activity [7]: Active
- Activity [8]: Active
- survival at 648 h [9]: 100%
- Activity [10]: 100%
- Activity [11]: Active
- Activity [12]: 0.1 g
- Activity [13]: 0.23 g
- Activity [14]: 99.06%
- Activity [15]: inactive
- Activity [16]: Non-Toxic
- Activity [17]: Active
- Activity [18]: 13.6%
- IC50 [19]: 9.7 µM
- inhibition at 9.7 µM [20]: 66%
- inhibition at 9.7 µM [21]: ~65%
- survival at 648 h [22]: 100%
- Activity [23]: Active
- Activity [24]: Active
- Activity [25]: 98.12%
- Activity [26]: Active
- Activity [27]: Active
- Activity [28]: Active
- Activity [29]: Active
- Activity [30]: Toxic
- Activity [31]: Active
- Activity [32]: 83.96%
- Activity [33]: Active
- Cmax [34]: 55.8 ng/mL
- Activity [35]: Active
- Activity [36]: Active
- Activity [37]: Active
- Activity [38]: Active
